US20050277602A1, “Methods employing agonists of P38 map kinase for the treatment of asthma” (priority 2004, published 2005)
Values joined by “and” are separate entries in the source; they are usually repeats but may differ in a detail not shown here. Equal entries are not always repeated. “Also recorded” adds a separate entry of the source. Where two headings read alike, the source gives them in different places.

B1: Der p1: affinity purified house dust mite allergen with intrinsic cysteine protease activity, activated with cysteine (protein, UniProt P08176 99-320, looked up)
Peptidase 1: TNACSINGNAPAEIDLRQMRTVTPIRMQGGCGSCWAFSGVAATESAYLAYRNQSLDLAEQELVDCASQHGCHGDTIPRGIEYIQHNGVVQESYYRYVAREQSCRRPNAQRFGISNYCQIYPPNVNKIREALAQTHSAIAVIIGIKDLDAFRHYDGRTIIQRDNGYQPNYHAVNIVGYSNAQGVDYWIVRNSWDTNWGDNGYGYFAANIDLMMIEEYPYVVIL

Legend:
rabbit ASM tissues [1] = assay: Relaxation responses to isoproterenol in isolated rabbit ASM tissues half-maximally contracted with ACh; type: cell-based; conditions: for effect on relaxation responses to isoproterenol in tissues not exposed to Der p1: control ASM
Procedure: (§1) Following general anesthesia with xylazine (10 mg/kg) and ketamine (50 mg/kg), rabbits were sacrificed with an overdose of pentobarbital (125 mg/kg). As described previously (Grunstein et al. (2001) Am J Physiol Lung Cell Mol Physiol 280:L229-L238), the tracheae were removed via open thoracotomy, the loose connective tissue and epithelium were carefully scraped and removed, and the tracheae were divided into ring segments. Each alternate ring was incubated for 24 hours at room temperature in the presence of either vehicle (saline) alone (control), vehicle containing cysteine (5 mM), or varying concentrations of affinity purified Der p1 allergen (0.1, 0.5, 1.0, 5.0 μg/ml) both in the absence and presence of cysteine, as addition of the latter is required to restore the cysteine protease activity of the purified Der p1. In parallel experiments, 30 min prior to incubation in control or Der p1-containing medium, ASM segments were treated with either the specific cysteine protease inhibitor, E-64 (trans-epoxysuccinyl-L-leucyl-amido (4-guanidino)-butane; 1 μM), the serine protease inhibitor, leupeptin (1 μM), the MEK1/2-specific inhibitors, U0126 (5 μM) or PD98059 (10 μM), or the specific p38 MAP kinase inhibitors, SB202190 (10 μM) or SB203580 (10 μM).
(§2) Following incubation, the ASM segments were placed in organ baths containing modified Krebs-Ringer solution aerated with 5% CO2 in oxygen (pH: 7.35-7.40), and the tissues were attached to force transducers from which isometric tension was continuously monitored on a multichannel recorder, as previously described (Hirst et al. (2002) Am J Respir Crit Care Med 165:1161-71). Cholinergic contractility was then assessed in the ASM segments by cumulative administration of acetylcholine (ACh; 10^−10 to 10^−4 M). Thereafter, the tissues were repeatedly rinsed with fresh buffer, and subsequent relaxation responses to isoproterenol (10^−10-10^−4 M) were generated after the tissues were half-maximally contracted with ACh. The constrictor dose-response curves to ACh were analyzed in terms of each tissue's maximal isometric contractile force (Tmax) to the agonist, and the relaxation responses to isoproterenol were assessed in terms of % maximal relaxation (Rmax) from the initial level of induced cholinergic contraction, and sensitivity to the relaxing agent was determined as the corresponding pD50 value (i.e., geometric mean ED50 value) associated with 50% of Rmax.

p38 MAP kinase = assay: Immunoblot analysis of phosphorylated p38 MAP kinase in rabbit ASM tissues; type: cell-based; conditions: for expression of phosphorylated p38 MAP kinase relative to control (unstimulated) ASM: tissues exposed for 30 min, anisomycin 50 ng/ml or Der p1 alone
Procedure: (§3) Protein levels of phosporylated and total ERK1/2 and p38 MAP kinase were assessed by Western blot analysis of whole cell lysates isolated from rabbit ASM tissues following treatment with either vehicle alone or cysteine-activated Der p1 (1 μg/ml), both in the absence and presence of E-64, SB202190, or anisomycin. The tissues were homogenized and proteins extracted in a buffer containing 50 mM Tris-HC 1,150 mM NaCl, 1 mM EDTA (pH 7.4) with 1 mM phenylmethylsulfonyl fluoride, 5 μg/mL aprotinin, and 5 μg/mL leupeptin. Following removal of insoluble debris by centrifugation, gel-loading buffer was added to the supernatants, and extracts were then loaded (using 30 μg total protein/sample) on a 10% SDS-PAGE gel for immunoblotting after transferring to a nitrocellulose membrane. The membranes were blocked with 5% nonfat dry milk and then incubated overnight with monoclonal mouse anti-human phosphotyrosine-threonine (Thr180/Tyr182)-p38 MAP kinase and p38 MAP kinase, and anti-human phosphotyrosine-threonine (Thr202/Tyr204)-p44/42 (ERK1/2) and p44/42 primary antibodies. The kinase levels were detected using enhanced chemiluminescence after a 1-hour incubation with a 1:1,000 dilution of horseradish peroxidase (HRP)-conjugated goat-anti-mouse secondary antibody, followed by exposure to autoradiography film. Protein band intensities were quantified using Alphalmager, and the data normalized relative to those obtained in untreated ASM samples.

rabbit ASM tissues [2] = assay: Constrictor responses to acetylcholine in isolated rabbit ASM tissues (organ bath, isometric tension); type: cell-based; conditions: for effect on constrictor responses to ACh in tissues not exposed to Der p1: control (vehicle-exposed) ASM; for maximal constrictor response (Tmax) to ACh: mean±SE
Procedure: as §1, §2

ERK1/2 = assay: Immunoblot analysis of phosphorylated ERK1/2 in rabbit ASM tissues; type: cell-based; conditions: for effect on Der p1-induced expression of phosphorylated ERK1/2: Der p1-exposed ASM pretreated/co-treated with E-64, SB202190 or anisomycin (50 ng/ml)
Procedure: as §3

[3] = tested on: cultured human ASM (HASM) cells; assay: IgE-induced release of IL-6 from cultured human ASM cells (ELISA); type: cell-based
Procedure: Human airway smooth muscle cells were purchased from BioWhittaker, Inc., (Walkersville, […].) The cells were cultured in 100 mm dishes in Ham's F 12 nutrient mixture (Invitrogen, Carlsbad Calif.) supplemented with 10% FBS (Hyclone, Logan, Utah) under 5% CO2 environment. After attaining 90% confluence in cell culture, the cells were used for the studies described in Example 2.
Preparations of IgE immune complexes containing human IgE and mouse monoclonal IgG2B (anti-IgE) (Biodesign International, Saco, Me.) at a 15/5 μg ratio were added to cells 24 hr after serum deprivation. The cells were harvested at the indicated time points for immunoblotting and media were collected for ELISA analysis as described below.
IL 6 accumulation in the ASM cell culture media was detected using an ELISA kit for IL 6 purchased from Research Diagnostics Inc. (Flanders, N.J.). Culture media was diluted 1:50 into a sample dilution buffer supplied in the kit. The experiments were carried out according to the manufacturer's protocol.

OVA-sensitized mice = OVA-sensitized mice treated with U0126; cited from earlier work
HL-60 leukemia cells = conditions: cited from earlier work
ASM preparations = assay: Intracellular cAMP accumulation in ASM preparations (EIA); type: cell-based, rabbit; conditions: tissues exposed to Der p1; data not shown
Procedure: Intracellular cAMP levels were assayed in control (untreated) and Der p1-treated ASM preparations under baseline (unstimulated) conditions and at 10 min following administration of isoproterenol (0.1-10 μM). Following stimulation with isoproterenol, the tissues were homogenized and the cAMP levels were measured using the Form a A cyclic AMP “PLUS” EIA kit (Biomol Inc., Plymouth Meeting, Pa.) following manufacturer's protocol.

[4] = Der p1-exposed ASM, E-64 1 μM, leupeptin 1 μM, U0126 5 μM, PD98059 10 μM, SB202190/SB203580 10 μM, anisomycin 50 ng/ml
[5] = Der p1 not pre-activated with cysteine (inactivated), data not shown
[6] = Der p1-exposed tissues, densitometry, 4 experiments

| Molecule | effect of pretreatment on Der p1-induced impaired relaxation responsiveness to isoproterenol (rabbit ASM tissues [1]; [4]) | effect on relaxation responses to isoproterenol in tissues not exposed to Der p1 (rabbit ASM tissues [1]) | effect of pretreatment on Der p1-induced enhanced constrictor responsiveness to ACh (rabbit ASM tissues [2]; [4]) | effect on constrictor responses to ACh in tissues not exposed to Der p1 (rabbit ASM tissues [2]) | effect on Der p1-induced expression of phosphorylated ERK1/2 (ERK1/2) | other results |
| --- | --- | --- | --- | --- | --- | --- |
| CC(C)C[C@H](NC(=O)[C@H]1O[C@@H]1C(=O)O)C(=O)NCCCCN=C(N)N (relative stereo) [E-64, trans-epoxysuccinyl-L-leucyl-amido (4-guanidino)-butane] | prevented | no effect | largely abrogated | no effect | neither the levels of phosphorylated ERK1/2 nor p38 MAP kinase were appreciably altered | effect on Der p1-induced expression of phosphorylated p38 MAP kinase (p38 MAP kinase): neither the levels of phosphorylated ERK1/2 nor p38 MAP kinase were appreciably altered |
| COc1cccc(-c2cc(=O)c3ccccc3o2)c1N [PD98059] | qualitatively comparable opposing effects; also recorded: largely prevented | neither of these inhibitors produced a significant change | qualitatively comparable opposing effects; also recorded: largely prevented | neither of these inhibitors produced a significant change |  |  |
| Oc1ccc(-c2nc(-c3ccncc3)c(-c3ccc(F)cc3)[nH]2)cc1 [SB202190] | further significantly impaired |  | further augmented |  | distinctly enhanced | maximal relaxation (Rmax) to isoproterenol (rabbit ASM tissues [1]; Der p1-exposed tissues pretreated with SB202190 (10 μM), mean): 37.6±7.1%; IgE-induced release of IL-6, augmented ([3]; IgE-exposed HASM cells pretreated with SB-202190): approximately 9 fold; maximal constrictor response (Tmax) to ACh (rabbit ASM tissues [2]; Der p1-exposed tissues pretreated with SB202190 (10 μM)): 136.2±6.2 g/g ASM wt. |
| C[S+]([O-])c1ccc(-c2nc(-c3ccncc3)c(-c3ccc(F)cc3)[nH]2)cc1 (centres unmarked) [SB203580] | qualitatively comparable opposing effects | neither of these inhibitors produced a significant change | qualitatively comparable opposing effects | neither of these inhibitors produced a significant change |  |  |
| N#CC(=C(/N)Sc1ccccc1N)/C(C#N)=C(\N)Sc1ccccc1N [U0126] |  |  |  |  |  | effect of pretreatment on Der p1-induced impaired relaxation responsiveness to isoproterenol (rabbit ASM tissues [1]): largely ablated; airway hyperresponsiveness, elevated intrapulmonary eosinophil counts and cytokine levels (OVA-sensitized mice): significantly inhibit; effect on IgE-induced release of IL-6 ([3]; IgE-exposed HASM cells, concomitant pretreatment with U-0126): completely abrogated; effect of pretreatment on Der p1-induced enhanced constrictor responsiveness to ACh (rabbit ASM tissues [2]): completely abrogated |
| COc1ccc(C[C@H]2NC[C@H](O)[C@H]2OC(C)=O)cc1 [anisomycin] | largely prevented | no significant effect | completely abrogated | no effect | largely abrogated | stimulated ERK activity (HL-60 leukemia cells; stimulated HL-60 cells): inhibits; basal ERK activity (HL-60 leukemia cells; unstimulated HL-60 cells): no effect; expression of phosphorylated p38 MAP kinase relative to control (unstimulated) ASM (p38 MAP kinase): increased expression; effect on phosphorylated ERK1/2 expression in unstimulated ASM (ERK1/2; anisomycin 50 ng/ml, 30 min, no Der p1): essentially no effect |
| CC(=O)N[C@@H](CC(C)C)C(=O)N[C@@H](CC(C)C)C(=O)N[C@H](C=O)CCCNC(=N)N [leupeptin] | unaffected |  | unaffected |  |  |  |
| B1 |  |  |  |  |  | isoproterenol-induced cAMP accumulation relative to control (untreated) ASM (ASM preparations): reduced; sensitivity to isoproterenol (pD50) (rabbit ASM tissues [1]; ASM exposed 24 h to Der p1, mean±SE): 5.99±0.04 -log M; maximal relaxation (Rmax) to isoproterenol (rabbit ASM tissues [1]; ASM exposed 24 h to cysteine-activated Der p1, mean±SE): 37.9±4.9% and 48.8±4.7%; effect on relaxant responsiveness (rabbit ASM tissues [1]; [5]): no effect; maximal enhanced expression of phosphorylated p38 MAP kinase above basal (pretreatment) level (p38 MAP kinase; [6]): 3.2 fold; expression of phosphorylated p38 MAP kinase relative to control (unstimulated) ASM (p38 MAP kinase): increased expression; maximal constrictor response (Tmax) to ACh (rabbit ASM tissues [2]; ASM exposed 24 h to cysteine-activated Der p1 (1 μg/ml)): 133.7±8.4 g/g ASM wt. and 123.8±6.5 g/g ASM wt. and 119.0±8.2 g/g ASM wt.; effect on constrictor responsiveness (rabbit ASM tissues [2]; [5]): no effect; maximal enhanced expression of phosphorylated ERK1/2 above basal (pretreatment) level (ERK1/2; [6]): 5.8 fold |
